These results are taken from patent publication US20220259212A1, “INHIBITORS OF INDOLEAMINE 2,3-DIOXYGENASE AND/OR TRYPTOPHAN 2,3-DIOXYGENASE” (Idorsia Pharmaceuticals Ltd, priority 2019, published 2022).

Molecules are shown by their SMILES.

Experiment [1] addresses T1, Recombinant full-length human IDO1 (Homo sapiens, UniProt P14902).
T1 construct: Recombinant full-length human IDO1 with a N-terminal hexahistidine tag; hexahistidine (N); made in house; host or cells: E. coli
The experiment in a line: IDO1 enzymatic assay (NFK quantified by LCMS). It counts as biochemical. The settings on record: 2 nM enzyme, 5 μM L-tryptophan, 30 min pre-incubation, pH6.5; mean if measured multiple times; read-out: hIDO activity (IC50 in nM). The method, then: 1) Testing Compounds for IDO Inhibitory Activity in an IDO1 Enzymatic Assay:
Recombinant full-length human IDO1 with a N-terminal hexahistidine tag expressed in E. coli and purified to homogeneity is incubated at a final concentration of 2 nM in assay buffer consisting of 37.5 mM phosphate buffer at pH6.5 supplemented with 10 mM ascorbic acid, 0.45 μM methylene blue, 50 U/ml catalase, 0.01% BSA, and 0.01% Tween 20 (protocol modified from Seegers et al, JBS 2014). Example compounds are serially diluted in DMSO, further diluted in phosphate buffer, and added to the enzyme at final concentrations ranging from 10 μM to 0.5 nM. The final DMSO concentration is 0.6%. Following a pre-incubation of 30 minutes at RT, the reaction is started by the addition of L-tryptophan at a final concentration of 5 μM in assay buffer. After 30 minutes of incubation at RT, 3 μL of the 20 μl reaction mixture are transferred to a 384 deep well plate containing 25 μL of deionized water. 100 μl of 200 nM L-Tryptophan-(indole-d5) in cold 100% methanol are added followed by a 10 minutes centrifugation at 3220×g at 4° C. An additional 75 μL of deionized water are then added followed by a 10 minutes centrifugation at 3220×g at 4° C. The product of the reaction N′-Formylkynurenine (NFK) is quantified by LCMS and normalized to the L-Tryptophan-(indole-d5) signal. Samples with 0.6% DMSO (0% effect) and a TDO/IDO inhibitor (100% effect) are used as control samples to set the parameters for the non-linear regression necessary for the determination of the half-maximal inhibitory concentration (IC50) for each compound. For each compound concentration the percentage of activity compared to 0% and 100% effect is calculated as average±STDEV (each concentration measured in duplicate). IC50 values and curves are generated with XLfit software (IDBS) using Dose-Response One Site model 203 (four parameter logistic curve model). The calculated IC50 values may fluctuate depending on the daily assay performance. Fluctuations of this kind are known to those skilled in the art. When compounds are measured multiple times, mean values are given.

In experiment [2] the target is T2, Recombinant human TDO comprising amino acids 19-407 (Homo sapiens, UniProt P48775).
T2 construct: human TDO comprising amino acids 19-407; hexahistidine (N); made in house; host or cells: E. coli
The experiment in a line: TDO2 enzymatic assay (NFK quantified by LCMS). It counts as biochemical. The settings on record: 15 nM enzyme, 200 μM L-tryptophan, 30 min pre-incubation, pH7; mean if measured multiple times; read-out: hTDO activity (IC50 in nM). The method, then: 2) Testing Compounds for TDO Inhibitory Activity in a TDO2 Enzymatic Assay:
Recombinant human TDO comprising amino acids 19-407 with a N-terminal hexahistidine tag expressed in E. coli and purified to homogeneity is incubated at a final concentration of 15 nM in assay buffer consisting of 75 mM phosphate buffer at pH7 supplemented with 100 μM ascorbic acid, 50 U/ml Catalase, 0.01% BSA, and 0.01% Tween 20 (protocol modified from Seegers et al, JBS 2014). Example compounds are serially diluted in DMSO, further diluted in phosphate buffer, and added to the reaction mixture at final concentrations ranging from 10 μM to 0.5 nM. The final DMSO concentration is 0.6%. Following a pre-incubation of 30 minutes at RT, the reaction is started by the addition of L-tryptophan at a final concentration of 200 μM in assay buffer. After 30 minutes of incubation at RT, 3 μL of the reaction mixture are transferred to a 384 deep well plate containing 25 μL of deionized water. 100 μl of 200 nM L-Tryptophan-(indole-d5) in cold 100% methanol are added followed by a 10 minutes centrifugation at 3220×g at 4° C. An additional 75 μL of deionized water are then added followed by a 10 minutes centrifugation at 3220×g at 4° C. The product of the reaction N′-Formylkynurenine (NFK) is quantified by LCMS and normalized to the L-Tryptophan-(indole-d5) signal. Samples with 0.6% DMSO (0% effect) and a TDO/IDO inhibitor (100% effect) are used as control samples to set the parameters for the non-linear regression necessary for the determination of the half-maximal inhibitory concentration (IC50) for each compound. For each compound concentration the percentage of activity compared to 0% and 100% effect is calculated as average±STDEV (each concentration measured in duplicate). IC50 values and curves are generated with XLfit software (IDBS) using Dose-Response One Site model 203 (four parameter logistic curve model). The calculated IC50 values may fluctuate depending on the daily assay performance. Fluctuations of this kind are known to those skilled in the art. When compounds are measured multiple times, mean values are given.

For experiment [3], the target named is T3, IDO1 in SKOV3 cells (Homo sapiens, UniProt P14902).
T3 construct: SKOV3 cells (NCI, No. 0503405) which upregulate IDO1 after stimulation with IFNγ; host or cells: SKOV3 cells stimulated with IFNγ
The experiment in a line: Cell-based IDO inhibitory activity in IFNγ-stimulated SKOV3 cells (NFK + kynurenine by LCMS). The settings on record: IFNγ 50 ng/ml, 200 uM L-tryptophan, 24 hours. The text has this:
3) Testing Compounds for IDO/TDO Inhibitory Activity and Toxicity in Cell-Based Assays
SW48 cells (ATCC, CCL-231) are used to measure compounds for TDO inhibitory activity and are routinely maintained in DMEM high glucose/GlutaMAX™/pyruvate 90% (v/v), FCS 10% (v/v), Penicilin/streptomycin 1% (v/v). SKOV3 cells (NCI, No. 0503405) which upregulate IDO1 after stimulation with IFNγ are used to measure compounds for IDO inhibitory activity. SKOV3 cells are routinely maintained in RPMI 90% (v/v), FCS 10% (v/v), Penicilin/streptomycin 1% (v/v). SW48 or SKOV3 cells are seeded in 384 well plates at a density of 8000 cells in 45 ul per well or 4000 cells in 45 ul per well, respectively. Plates are incubated at 37° C./5% CO2 for 24 hours. On the next day, 10 ul compound in serial dilutions (tested concentration range 10 uM-40 nM) and 200 uM L-tryptophan are added (SKV03 receive in addition IFNγ at a final concentration of 50 ng/ml). After 24 hours of incubation at 37° C./5% CO2, 3 ul of the supernatant per well is transferred to 25 ul H2O per well in a 384 deep well plate and 25 ul of the supernatant per well is transferred to waste. The SKOV3 and SW48 cell plates with 25 ul supernatant per well remaining are used to measure viability (see below). The 384 deep well plate containing 3 ul supernatant and 25 ul H2O per well are further processed for LCMS: After the addition of 100 ul L-tryptophan-(indole-d5) (Sigma 615862) at 200 nM in methanol, the 384 deep well plates are centrifuged for 10 minutes at 3220×g at 4° C., 75 ul H2O is added per well and plates centrifuged again for 10 minutes at 3220×g at 4° C. N-formylkynurenine and kynurenine are quantified by LCMS, normalized to the internal standard L-tryptophan-(indole-d5) and the sum is calculated. Samples with 0.2% DMSO (0% effect) and a TDO/IDO inhibitor (100% effect) are used as control samples to set the parameters for the non-linear regression necessary for the determination of the IC50 for each compound. For each compound concentration the percentage of activity compared to 0% and 100% effect is calculated as average±STDEV (each concentration measured in duplicate). IC50 values and curves are generated with XLfit software (IDBS) using Dose-Response One Site model 203. The calculated IC50 values may fluctuate depending on the daily cellular assay performance. Fluctuations of this kind are known to those skilled in the art. When compounds are measured multiple times, mean values are given.

T1 sequence (P14902 whole entry): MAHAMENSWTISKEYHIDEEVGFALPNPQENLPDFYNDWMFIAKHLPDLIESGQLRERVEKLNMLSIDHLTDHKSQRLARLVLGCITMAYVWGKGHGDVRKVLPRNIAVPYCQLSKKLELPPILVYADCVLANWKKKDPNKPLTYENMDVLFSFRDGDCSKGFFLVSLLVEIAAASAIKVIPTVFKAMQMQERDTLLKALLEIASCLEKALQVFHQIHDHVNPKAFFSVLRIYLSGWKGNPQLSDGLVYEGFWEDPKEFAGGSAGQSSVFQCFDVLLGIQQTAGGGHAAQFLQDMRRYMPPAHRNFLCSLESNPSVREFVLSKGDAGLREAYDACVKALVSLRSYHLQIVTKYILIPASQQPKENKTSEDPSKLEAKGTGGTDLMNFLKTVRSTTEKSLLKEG
T3 sequence (P14902 whole entry): as above
T2 sequence (P48775 19-406 limits assumed): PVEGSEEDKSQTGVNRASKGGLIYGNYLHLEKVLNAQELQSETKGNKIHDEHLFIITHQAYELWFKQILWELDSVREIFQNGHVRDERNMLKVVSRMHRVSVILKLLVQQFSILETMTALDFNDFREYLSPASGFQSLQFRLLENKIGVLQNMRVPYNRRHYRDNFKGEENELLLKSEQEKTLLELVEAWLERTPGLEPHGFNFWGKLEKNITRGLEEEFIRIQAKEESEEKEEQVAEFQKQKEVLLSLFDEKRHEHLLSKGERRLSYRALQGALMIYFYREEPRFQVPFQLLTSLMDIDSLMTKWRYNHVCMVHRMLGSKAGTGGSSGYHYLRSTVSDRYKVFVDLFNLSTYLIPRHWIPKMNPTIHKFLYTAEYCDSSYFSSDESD

`OC(c1cn(-c2ccccc2)nn1)c1c(Cl)ccc2cncn12` (racemic) [Example 1, rac-(6-Chloro-imidazo[1,5-a]pyridin-5-yl)-(1-phenyl-1H-[1,2,3]triazol-4-yl)-methanol]: the half-inhibitory concentration (IC50) in experiment [1] is 9.6 nM; in experiment [2], over 10200 nM; in experiment [3] it was 246 nM.

For `Cc1ccc2cncn2c1C(O)c1cn(-c2ccccc2)nn1` (racemic) [Example 2, rac-(6-Methyl-imidazo[1,5-a]pyridin-5-yl)-(1-phenyl-1H-[1,2,3]triazol-4-yl)-methanol], the IC50 in experiment [1] was 6.17 nM; in experiment [2], over 10200 nM; in experiment [3] it was 225 nM.

Turning to `OC(c1cn(-c2ccccc2)nn1)c1c(C2CC2)ncc2cncn12` (racemic) [Example 3, rac-(6-Cyclopropyl-imidazo[1,5-a]pyrazin-5-yl)-(1-phenyl-1H-[1,2,3]triazol-4-yl)-methanol], the IC50 in experiment [1] is 41 nM; in experiment [2] it was over 10200 nM; in experiment [3], 470 nM.

On to `Cc1c(C(O)c2c(Cl)ccc3cncn23)nnn1-c1ccc(OCCC(C)(C)O)c(Cl)c1` (racemic) [Example 49, rac-4-(2-Chloro-4-{4-[(6-chloro-imidazo[1,5-a]pyridin-5-yl)-hydroxy-methyl]-5-methyl-[1,2,3]triazol-1-yl}-phenoxy)-2-methyl-butan-2-ol], for which the IC50 in experiment [2] was 8360 nM; in experiment [3], 10.2 nM.

Regarding `Cc1c(C(O)c2c(Cl)ccc3cncn23)nnn1-c1ccc(OCCC(C)(C)O)c(F)c1` (racemic) [Example 50, rac-4-(4-{4-[(6-Chloro-imidazo[1,5-a]pyridin-5-yl)-hydroxy-methyl]-5-methyl-[1,2,3]triazol-1-yl}-2-fluoro-phenoxy)-2-methyl-butan-2-ol], the 50% inhibitory concentration (IC50) in experiment [2] worked out at 8200 nM; in experiment [3] it was 5.41 nM.

In the case of `COc1ccc(-n2nnc(C(O)c3c(Cl)ccc4cncn34)c2Cl)cc1` (racemic) [Example 51, rac-(6-Chloro-imidazo[1,5-a]pyridin-5-yl)-[5-chloro-1-(4-methoxy-phenyl)-1H-[1,2,3]triazol-4-yl]-methanol], the values for the half-inhibitory concentration (IC50) in experiment [2] and in experiment [3] were 7040 nM and 145 nM, respectively.

With `Cc1c(C(O)c2c(C3CC3)ncc3cncn23)nnn1-c1ccc(F)cc1F` (racemic) [Example 54, rac-(6-Cyclopropyl-imidazo[1,5-a]pyrazin-5-yl)-[1-(2,4-difluoro-phenyl)-5-methyl-1H-[1,2,3]triazol-4-yl]-methanol], the half-inhibitory concentration (IC50) was over 10200 nM in experiment [2] and 364 nM in experiment [3].

`COc1cc(F)c(-n2nnc(C(O)c3c(C4CC4)ncc4cncn34)c2C)cc1F` (racemic) [Example 55, rac-(6-Cyclopropyl-imidazo[1,5-a]pyrazin-5-yl)-[1-(2,5-difluoro-4-methoxy-phenyl)-5-methyl-1H-[1,2,3]triazol-4-yl]-methanol]: the concentration for half-maximal inhibition (IC50) in experiment [2] is over 10200 nM; in experiment [3] it was 35 nM.

As for `Cc1c(C(O)c2c(C3CC3)ncc3cncn23)nnn1-c1ccccc1F` (racemic) [Example 57, rac-(6-Cyclopropyl-imidazo[1,5-a]pyrazin-5-yl)-(1-(2-fluoro-phenyl)-5-methyl-1H-[1,2,3]triazol-4-yl-methanol], the IC50 in experiment [2] was over 10200 nM; in experiment [3], 333 nM.

Turning to `COc1ccc(-n2cc([C@H](O)c3c(C4CC4)ncc4cncn34)nn2)cc1Br` [Example 23, (R)-[1-(3-Bromo-4-methoxy-phenyl)-1H-[1,2,3]triazol-4-yl]-(6-cyclopropyl-imidazo[1,5-a]pyrazin-5-yl)-methanol], the concentration for half-maximal inhibition (IC50) is 9.61 nM in experiment [1] and 51.9 nM in experiment [3].

As for `O[C@@H](c1cn(-c2cc(F)c(OCC3(F)COC3)cc2F)nn1)c1c(C2CC2)ncc2cncn12` [Example 52, (R)-(6-Cyclopropyl-imidazo[1,5-a]pyrazin-5-yl)-{1-[2,5-difluoro-4-(3-fluoro-oxetan-3-ylmethoxy)-phenyl]-1H-[1,2,3]triazol-4-yl}-methanol], the half-maximal inhibitory concentration (IC50) is over 10200 nM in experiment [2] and 18.1 nM in experiment [3].

For `O[C@@H](c1cn(-c2cc(F)c(OCC3COC3)cc2F)nn1)c1c(C2CC2)ncc2cncn12` [Example 53, (R)-(6-Cyclopropyl-imidazo[1,5-a]pyrazin-5-yl)-{1-[2,5-difluoro-4-(oxetan-3-ylmethoxy)-phenyl]-1H-[1,2,3]triazol-4-yl}-methanol], the IC50 in experiment [2] was over 10200 nM; in experiment [3] it was 27.4 nM.

With `CC(C)(O)COc1cc(F)c(-n2cc([C@H](O)c3c(C4CC4)ncc4cncn34)nn2)cc1F` [Example 56, 1-(4-{4-[(R)-(6-Cyclopropyl-imidazo[1,5-a]pyrazin-5-yl)-hydroxy-methyl]-[1,2,3]triazol-1-yl}-2,5-difluoro-phenoxy)-2-methyl-propan-2-ol], the concentration for half-maximal inhibition (IC50) is over 10200 nM in experiment [2] and 29.3 nM in experiment [3].
